This is an account of results in patent publication US12590099B2, “Inhibitors of histone deacetylase useful for the treatment or prevention of HIV infection” (Merck Sharp & Dohme LLC, priority 2018, dated 2026).

Structures are written as SMILES.

Assay type in all cases: biochemical
One experiment addresses T1, Recombinant human HDAC1 (Homo sapiens, UniProt Q13547).
T1 construct: FLAG (C); made in house
The experiment can be described thus: Human HDAC enzyme inhibitor Fluor-de-Lys assay, HDAC1. To be noted: recombinant human HDAC1, Fluor-de-Lys assay. The procedure, abridged:
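Fluor-de-Lys format at room temperature (23° C.): compounds titrated 10-point, 1:3, preincubated with HDAC before substrate addition; HDAC1 run at 0.3 nM enzyme with 20 μM BML-KI104. Developer with excess HDAC inhibitor ends the reaction, and trypsin-liberated AMC fluorescence is the read-out.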

In the next experiment the target is T2, Recombinant human HDAC2 (Homo sapiens, UniProt Q92769).
T2 construct: Full length human HDAC2-FLAG was expressed in baculovirus infected Sf9 cells; FLAG (C); made in house; host or cells: Sf9 (baculovirus)
The experiment can be described thus: Human HDAC enzyme inhibitor Fluor-de-Lys assay, HDAC2. The following applies: recombinant human HDAC2, Fluor-de-Lys assay. The procedure, abridged:
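Fluor-de-Lys format at room temperature (23° C.): compounds titrated 10-point, 1:3, preincubated with HDAC before substrate addition. Developer with excess HDAC inhibitor ends the reaction, and trypsin-liberated AMC fluorescence is the read-out.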

In experiment [1] the target is T3, Recombinant human HDAC3/SMRT heterodimer (Homo sapiens, UniProt O15379).
T3 construct: FLAG (C); made in house
Nature of the experiment: Human HDAC enzyme inhibitor Fluor-de-Lys assay, HDAC3/SMRT. The following applies: recombinant human HDAC3/SMRT, Fluor-de-Lys assay.

The target in another experiment is T4, HDAC6 (Homo sapiens, UniProt Q9UBN7).
T4 sequence (Q9UBN7 1-1215): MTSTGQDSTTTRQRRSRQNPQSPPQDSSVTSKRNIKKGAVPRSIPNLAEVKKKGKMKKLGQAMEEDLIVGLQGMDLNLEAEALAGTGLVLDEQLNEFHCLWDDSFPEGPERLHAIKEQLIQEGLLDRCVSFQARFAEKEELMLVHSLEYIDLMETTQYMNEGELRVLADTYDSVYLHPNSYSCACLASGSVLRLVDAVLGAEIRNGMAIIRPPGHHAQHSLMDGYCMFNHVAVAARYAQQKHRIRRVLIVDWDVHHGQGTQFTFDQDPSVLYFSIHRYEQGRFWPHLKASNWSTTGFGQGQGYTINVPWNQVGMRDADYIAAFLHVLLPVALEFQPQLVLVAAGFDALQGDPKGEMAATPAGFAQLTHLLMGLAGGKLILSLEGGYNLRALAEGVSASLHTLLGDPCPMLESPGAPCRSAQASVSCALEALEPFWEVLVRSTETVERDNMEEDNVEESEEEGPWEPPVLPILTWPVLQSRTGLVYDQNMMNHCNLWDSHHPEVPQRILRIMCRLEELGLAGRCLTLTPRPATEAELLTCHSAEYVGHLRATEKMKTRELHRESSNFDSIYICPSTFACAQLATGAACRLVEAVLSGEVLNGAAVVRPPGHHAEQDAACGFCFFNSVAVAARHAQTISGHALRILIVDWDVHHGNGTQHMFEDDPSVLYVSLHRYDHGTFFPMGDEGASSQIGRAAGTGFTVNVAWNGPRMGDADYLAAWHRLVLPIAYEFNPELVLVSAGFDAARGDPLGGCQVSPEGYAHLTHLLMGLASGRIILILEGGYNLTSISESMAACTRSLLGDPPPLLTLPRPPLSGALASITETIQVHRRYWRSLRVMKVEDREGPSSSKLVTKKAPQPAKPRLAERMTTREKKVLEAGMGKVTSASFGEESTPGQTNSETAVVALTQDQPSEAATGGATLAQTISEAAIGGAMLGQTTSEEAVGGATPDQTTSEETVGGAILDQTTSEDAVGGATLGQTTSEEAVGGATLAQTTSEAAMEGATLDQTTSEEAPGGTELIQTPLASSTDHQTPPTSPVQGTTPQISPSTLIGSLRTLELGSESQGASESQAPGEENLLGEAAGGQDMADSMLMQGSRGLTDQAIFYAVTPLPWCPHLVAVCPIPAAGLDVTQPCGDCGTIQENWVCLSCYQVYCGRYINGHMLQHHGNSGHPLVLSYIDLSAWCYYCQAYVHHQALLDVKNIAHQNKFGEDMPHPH
Nature of the experiment: Human HDAC enzyme inhibitor Fluor-de-Lys assay, HDAC6. The following applies: HDAC6, Fluor-de-Lys assay.

T3 sequence (O15379 whole entry): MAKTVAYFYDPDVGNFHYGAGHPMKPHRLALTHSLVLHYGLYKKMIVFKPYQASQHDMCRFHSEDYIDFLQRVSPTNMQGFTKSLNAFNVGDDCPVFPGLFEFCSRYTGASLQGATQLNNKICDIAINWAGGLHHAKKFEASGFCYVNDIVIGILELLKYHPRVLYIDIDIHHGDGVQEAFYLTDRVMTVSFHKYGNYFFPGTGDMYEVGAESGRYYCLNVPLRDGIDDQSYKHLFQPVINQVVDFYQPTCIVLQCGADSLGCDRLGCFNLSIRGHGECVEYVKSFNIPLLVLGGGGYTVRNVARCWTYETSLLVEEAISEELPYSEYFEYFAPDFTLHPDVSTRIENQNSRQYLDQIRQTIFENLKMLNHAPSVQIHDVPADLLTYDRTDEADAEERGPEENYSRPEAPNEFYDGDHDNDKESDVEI
T3 sequence (Q9Y618 1-899 partner limits assumed): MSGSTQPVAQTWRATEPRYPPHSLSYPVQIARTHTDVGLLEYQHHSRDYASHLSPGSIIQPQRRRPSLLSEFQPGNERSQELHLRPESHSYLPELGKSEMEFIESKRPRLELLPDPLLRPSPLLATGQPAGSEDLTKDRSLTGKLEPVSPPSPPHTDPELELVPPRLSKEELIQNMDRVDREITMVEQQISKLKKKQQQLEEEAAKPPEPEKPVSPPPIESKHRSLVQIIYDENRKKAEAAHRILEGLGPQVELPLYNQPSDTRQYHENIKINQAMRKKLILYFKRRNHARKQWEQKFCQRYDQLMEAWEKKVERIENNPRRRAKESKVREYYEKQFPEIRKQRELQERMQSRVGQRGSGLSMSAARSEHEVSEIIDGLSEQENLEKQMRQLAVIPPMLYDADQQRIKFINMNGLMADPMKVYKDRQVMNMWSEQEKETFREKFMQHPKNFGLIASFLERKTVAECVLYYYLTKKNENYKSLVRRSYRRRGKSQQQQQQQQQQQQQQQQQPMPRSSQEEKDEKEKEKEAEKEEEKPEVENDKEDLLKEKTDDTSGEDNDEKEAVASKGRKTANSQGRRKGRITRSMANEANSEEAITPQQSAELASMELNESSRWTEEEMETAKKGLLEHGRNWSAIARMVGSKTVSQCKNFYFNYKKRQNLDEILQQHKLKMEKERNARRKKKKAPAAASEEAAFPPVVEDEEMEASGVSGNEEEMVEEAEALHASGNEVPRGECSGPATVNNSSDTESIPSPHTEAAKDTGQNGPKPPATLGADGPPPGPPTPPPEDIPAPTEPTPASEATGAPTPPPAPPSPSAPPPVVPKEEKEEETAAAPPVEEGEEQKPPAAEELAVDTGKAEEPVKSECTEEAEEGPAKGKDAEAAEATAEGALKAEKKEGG
T1 sequence (Q13547 whole entry): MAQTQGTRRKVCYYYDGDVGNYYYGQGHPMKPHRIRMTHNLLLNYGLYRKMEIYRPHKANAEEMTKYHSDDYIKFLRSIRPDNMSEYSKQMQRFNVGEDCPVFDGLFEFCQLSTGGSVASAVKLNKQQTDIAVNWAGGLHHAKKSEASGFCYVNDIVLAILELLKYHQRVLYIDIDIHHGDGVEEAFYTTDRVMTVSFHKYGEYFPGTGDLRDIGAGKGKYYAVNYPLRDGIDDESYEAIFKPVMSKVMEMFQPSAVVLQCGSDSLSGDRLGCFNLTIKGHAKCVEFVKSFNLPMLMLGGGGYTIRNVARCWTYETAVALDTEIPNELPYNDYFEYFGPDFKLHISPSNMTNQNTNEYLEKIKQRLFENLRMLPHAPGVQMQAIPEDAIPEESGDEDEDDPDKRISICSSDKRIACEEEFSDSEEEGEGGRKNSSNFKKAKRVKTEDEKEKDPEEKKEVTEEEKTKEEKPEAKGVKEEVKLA
T2 sequence (Q92769 whole entry): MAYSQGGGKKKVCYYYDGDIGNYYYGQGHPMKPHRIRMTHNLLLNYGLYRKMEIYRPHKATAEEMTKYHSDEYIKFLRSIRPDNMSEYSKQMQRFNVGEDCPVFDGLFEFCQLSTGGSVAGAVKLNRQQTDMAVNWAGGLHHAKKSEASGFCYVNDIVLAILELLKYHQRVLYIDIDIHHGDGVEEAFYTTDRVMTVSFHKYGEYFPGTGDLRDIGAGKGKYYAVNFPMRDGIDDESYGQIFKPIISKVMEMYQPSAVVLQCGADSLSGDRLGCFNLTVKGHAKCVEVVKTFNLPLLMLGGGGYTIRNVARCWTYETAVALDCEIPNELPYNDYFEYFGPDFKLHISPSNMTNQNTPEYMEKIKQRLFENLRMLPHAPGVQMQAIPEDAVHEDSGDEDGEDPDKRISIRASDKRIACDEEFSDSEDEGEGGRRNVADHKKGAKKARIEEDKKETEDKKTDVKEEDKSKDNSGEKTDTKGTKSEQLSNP

Consider `CCC(=O)CCCCC[C@H](NCC1CC1)c1ncc(-c2cc3ccc(C)nc3cc2OC)[nH]1` [Compound 398, (S)-9-((cyclopropylmethyl)amino)-9-(5-(7-methoxy-2-methylquinolin-6-yl)-1H-imidazol-2-yl)nonan-3-one], for which the IC50 – broadly, the point on the concentration scale where inhibition reaches its midpoint – was 186 nM on Recombinant human HDAC1, 810 nM on Recombinant human HDAC2, 241 nM in experiment [1] and greater than 900 nM at HDAC6.
In the case of `CCC(=O)CCCCC[C@H](NC(=O)C1=NOC2(CCN(S(C)(=O)=O)CC2)C1)c1ncc(-c2ccccc2)[nH]1` [Compound 383], the IC50 on Recombinant human HDAC1 is 96.5 nM; at Recombinant human HDAC2 it was 427 nM; in experiment [1], 16.7 nM; against HDAC6 it was 16100 nM.
The matching figures for `CCC(=O)CCCCC[C@H](NC(=O)C1=NOC2(CCN(C)CC2)C1)c1ncc(-c2ccc(-c3ccccn3)cc2OC)o1` [Compound 391]: 9.57 nM, 74.5 nM, 18.6 nM and greater than 900 nM.
With `CCC(=O)CCCCCC(NC(=O)C1CCC2(CC1)OC(=O)c1ncccc12)c1nnc(-c2cc3ccccc3nc2OC)o1` (stereo not drawn) [Compound 365], the IC50 on Recombinant human HDAC1 came out at 61.2 nM; at Recombinant human HDAC2, 208 nM; in experiment [1], 23.2 nM; at HDAC6 it was 1940 nM.
`CCC(=O)CCCCC[C@H](NC(=O)[C@H]1CC[C@]2(CC1)OC(=O)c1cccnc12)c1nnc(-c2cc3ccccc3nc2OC)o1` [Compound 368]: the IC50 on Recombinant human HDAC1 is 50.5 nM; on Recombinant human HDAC2 it was 149 nM; in experiment [1] it was 20.6 nM; against HDAC6, 2380 nM.
The matching figures for `CCN[C@@H](CCCCCC(=O)CC)c1ncc(-c2cc3ccc(C)nc3cc2OC)[nH]1` [Compound 403]: 248 nM, greater than 900 nM, 283 nM and greater than 900 nM.
The matching figures for `CCC(=O)CCCCC[C@H](NC(=O)C1=NOC2(CCN(C(=O)OC)CC2)C1)c1ncc(-c2ccccc2)[nH]1` [Compound 381]: 179 nM, 637 nM, 26.1 nM and 32300 nM.
For `CCC(=O)CCCCC[C@H](NC(=O)[C@H]1CC12CCN(C)CC2)c1ncc(-c2cc3ocnc3cc2F)o1` [Compound 389], in that order: 21.4 nM, 98.3 nM, 30.2 nM and greater than 900 nM.
For `CCC(=O)CCCCCC(N)(COC)c1ncc(-c2cc3ccc(C)nc3cc2OC)[nH]1` (stereo not drawn) [Compound 414, 9-amino-10-methoxy-9-[5-(7-methoxy-2-methylquinolin-6-yl)-1H-imidazol-2-yl]decan-3-one], the IC50 (on Recombinant human HDAC1; at Recombinant human HDAC2; in experiment [1]; against HDAC6) was greater than 900 nM throughout.
For the compound `CCC(=O)CCCCC[C@H](NC(=O)[C@H]1CC12CCN(C)CC2)c1ncc(-c2cc3ccc(N(C)C)nc3cc2OC)o1` [Compound 406], the IC50 is 0.83 nM on Recombinant human HDAC1, 2.5 nM at Recombinant human HDAC2, 1.05 nM in experiment [1] and greater than 900 nM at HDAC6.
Consider `CCC(=O)CCCCC[C@H](NC(=O)C1=NOC2(CCN(C(C)=O)CC2)C1)c1ncc(-c2ccccc2)[nH]1` [Compound 380], for which the IC50 on Recombinant human HDAC1 came to 69.8 nM; on Recombinant human HDAC2 it was 326 nM; in experiment [1] it was 8.92 nM; at HDAC6, 16200 nM.
For `CCCC(=O)CCCCC[C@H](N)c1ncc(-c2cc3ccc(C)nc3cc2OC)[nH]1` [Compound A30], in that order: 60.6 nM, 304 nM, 95.6 nM and greater than 900 nM.
The matching figures for `CCC(=O)CCCCC[C@H](NC(=O)C1=NOC2(CCN(C)CC2)C1)c1ncc(-c2cc3ccc(=O)n(C)c3cc2F)o1` [Compound 386]: 7.82 nM, 54.7 nM, 12.4 nM and greater than 900 nM.
The matching figures for `CCC(=O)CCCCC[C@H](NC(=O)C1=NOC2(CCN(C)CC2)C1)c1ncc(-c2ccc(-c3ccncc3)cc2OC)o1` [Compound 395]: 2.42 nM, 36.3 nM, 6.78 nM and greater than 900 nM.
In the case of `CCC(=O)CCCCC[C@H](NC(=O)C1CC12CCOCC2)c1ncc(-c2cc3ccc(C)nc3cc2OC)[nH]1` (single isomer, unassigned) [Compound 413], the IC50 on Recombinant human HDAC1 was 16.2 nM; at Recombinant human HDAC2 it was 155 nM; in experiment [1] it was 61.9 nM; against HDAC6, greater than 900 nM.
The matching figures for `CCCC(=O)CCCCC[C@H](NC(=O)[C@H]1CC12CCN(CC1CC1)CC2)c1ncc(-c2cc3ccc(C)nc3cc2OC)[nH]1` [Compound 416]: less than 1.58 nM, 4.5 nM, 1.11 nM and greater than 900 nM.
Take `CCC(=O)CCCCC[C@H](NC(=O)[C@H]1CC[C@]2(CC1)OC(=O)c1ccncc12)c1ncc(-c2ccccc2)[nH]1` [Compound 376]: the IC50 on Recombinant human HDAC1 came out at 49.9 nM; on Recombinant human HDAC2, 239 nM; in experiment [1], 9.02 nM; against HDAC6, 10800 nM.
For `CCC(=O)CCCCC[C@H](NC(=O)[C@H]1CC[C@]2(CC1)OC(=O)c1ncccc12)c1nnc(-c2cc3ccccc3nc2OC)o1` [Compound 367], in that order: 25.9 nM, 67.6 nM, 10.7 nM and 2110 nM.
For `CCC(=O)CCCCC[C@H](NC(=O)C1=NOC2(CCN(CC3CC3)CC2)C1)c1ncc(-c2cc3ccc(=O)n(C)c3cc2F)o1` [Compound 387], in that order: 25.8 nM, 207 nM, 48.1 nM and greater than 900 nM.
For the compound `CCC(=O)CCCCC[C@H](NC(=O)[C@H]1CC12CCN(CC1CC1)CC2)c1ncc(-c2cc3ccc(C)nc3cc2OC)o1` [Compound 422], the IC50 on Recombinant human HDAC1 came out at 0.17 nM; on Recombinant human HDAC2 it was 0.7 nM; in experiment [1], 0.08 nM; at HDAC6 it was 113 nM.
For `CCC(=O)CCCCC[C@H](NC(=O)C1=NOC2(CCN(C)CC2)C1)c1ncc(-c2ccccc2)[nH]1` [Compound 382], in that order: 32.9 nM, 146 nM, 8.02 nM and 12100 nM.
